Measured values: PubChem BioAssay (NCI)
Values joined by “and” are separate entries in the source; they are usually repeats but may differ in a detail not shown here. Equal entries are not always repeated.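 Cultured in 96-well plates, cells were exposed to test compound for 48 hours across five concentrations. Here, GI50 denotes the concentration required for 50% inhibition of growth. TGI is the concentration that stops growth completely.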

Tests used:
Assay in all cases: NCI-60 cell line screen, 48 h
A549 NSCLC = system: A549 NSCLC
T-47D breast = system: T-47D breast
SW-620 colon = system: SW-620 colon
NCI/ADR-RES ovarian = system: NCI/ADR-RES ovarian
NCI-H460 lung = system: NCI-H460 lung
HCC-2998 colon = system: HCC-2998 colon
SF-295 CNS = system: SF-295 CNS
786-0 renal = system: 786-0 renal
KM12 colon = system: KM12 colon
SK-MEL-5 melanoma = system: SK-MEL-5 melanoma

| Compound | GI50 (A549 NSCLC) | TGI (A549 NSCLC) | GI50 (T-47D breast) | TGI (T-47D breast) | GI50 (SW-620 colon) | TGI (SW-620 colon) | GI50 (NCI/ADR-RES ovarian) | TGI (NCI/ADR-RES ovarian) | GI50 (NCI-H460 lung) | TGI (NCI-H460 lung) | GI50 (HCC-2998 colon) | TGI (HCC-2998 colon) | GI50 (SF-295 CNS) | TGI (SF-295 CNS) | GI50 (786-0 renal) | TGI (786-0 renal) | GI50 (KM12 colon) | TGI (KM12 colon) | GI50 (SK-MEL-5 melanoma) | TGI (SK-MEL-5 melanoma) |
| --- | --- | --- | --- | --- | --- | --- | --- | --- | --- | --- | --- | --- | --- | --- | --- | --- | --- | --- | --- | --- |
| COc1ncc(-c2ccc3nc(N)n(-c4ccccc4C(F)(F)F)c(=O)c3c2)cc1S(=O)(=O)Nc1ccc(F)cc1F | 0.653 µM | > 100 µM | 0.425 µM | > 100 µM | 1.84 µM | 20 µM | 1.94 µM | 13.8 µM | 5.03 µM | 36.6 µM | 1.74 µM | 13.7 µM | 1.41 µM | 17.5 µM | 3.16 µM | 83.7 µM | 1.06 µM | 12.2 µM | 0.273 µM | 0.944 µM |
| C=C1C(=O)O[C@H]2[C@H]1CC/C(COC(=O)NCc1ccc(Cn3c(=O)sn(CCCI)c3=O)cc1)=C\CC[C@@]1(C)O[C@@H]21 | 11.2 µM | 25.3 µM | 1.79 µM | 3.84 µM | 1.4 µM | 3.17 µM | 28.1 µM | > 100 µM | 3.2 µM | 10.3 µM | 1.96 µM | 3.71 µM | 14.4 µM | 30.8 µM | 1.68 µM | 3.71 µM | 7.98 µM | 24.8 µM | 1.91 µM | 3.55 µM |
| CC(=O)Nc1ccc(S(=O)(=O)N2C(=O)CCC2C(=O)Nc2ccccc2)cc1 (stereo unspecified) | 0.721 µM | 19.2 µM | 0.283 µM | 14.6 µM | 0.405 µM | 16.7 µM | 1.61 µM | 29.1 µM | 0.359 µM | 15.3 µM | 0.645 µM | 5.62 µM | 0.33 µM | 3.41 µM | 1.42 µM | 13.3 µM | 0.214 µM | 11.3 µM | 0.367 µM | 5.31 µM |
| Nc1ncnc2c1ncn2C1SC(CO)C(O)C1O (stereo unspecified) | 26.6 µM | 73.4 µM | 5.24 µM | 26 µM | 17.5 µM | 77.2 µM | 13.5 µM | 52.1 µM | 7.88 µM | 37.9 µM | 11.9 µM | 34.5 µM | 20.1 µM | 52.6 µM | 16.5 µM | 37.3 µM | 23 µM | > 100 µM | 74.4 µM | > 100 µM |
| COc1ccc2c(c1)OCC1c3cc(OC)ccc3OC21 (stereo unspecified) | 89.1 µM | > 100 µM | 35.4 µM | > 100 µM | > 100 µM | > 100 µM | 32 µM | > 100 µM | 32.1 µM | > 100 µM | 5.42 µM | 58 µM | 20.4 µM | > 100 µM | > 100 µM | > 100 µM | 43.3 µM | > 100 µM | 28.4 µM | 86.1 µM |
| COc1cc(C(=O)N[C@@H]2CCCN(C)C2)ccc1Nc1ncc2c(n1)N(C1CCCC1)CC(C)(C)C(=O)N2C | 0.0549 µM | 5.18 µM | 1.12 µM | 17.8 µM | 0.0347 µM | 16.7 µM | 0.344 µM | 16.2 µM | 0.04 µM | 14.8 µM | 0.0498 µM | 14.7 µM | 0.109 µM | 3.56 µM | 0.308 µM | 6.43 µM | 0.0343 µM | 18.3 µM | 0.123 µM | 1.56 µM |
| O=c1[nH]c2c(ccc3cnccc32)c2c1CCC2 | 0.5 µM | > 53.5 µM | 0.352 µM | > 100 µM | 0.308 µM | 1.84 µM | 0.426 µM | > 100 µM | 0.376 µM | > 28.9 µM | 0.356 µM | 1.91 µM | 0.362 µM | > 100 µM | 0.344 µM | 29.9 µM | 0.332 µM | > 35.7 µM | 0.196 µM | 0.517 µM |
| COc1cc2nc(NC3CCC3)nc(NC3CCN(C(C)C)CC3)c2cc1OC | 3.08 µM | 14.5 µM | 1.95 µM | 4.11 µM | 2.49 µM | 7.02 µM | 15.6 µM | 65 µM | 3.36 µM | 12.1 µM | 1.7 µM | 3.46 µM | 1.87 µM | 3.67 µM | 1.85 µM | 3.91 µM | 4.01 µM | 14.7 µM | 1.75 µM | 3.15 µM |
| CC[C@@]12CC(C(=O)OC)=C3Nc4ccccc4[C@@]34CCN(C[C@H]3O[C@H]31)[C@@H]24 | 58.3 µM | > 100 µM | 27.5 µM | > 100 µM | 35.9 µM | > 100 µM | 31 µM | > 100 µM | 46.6 µM | > 100 µM | > 100 µM | > 100 µM | 36.7 µM | > 100 µM | > 100 µM | > 100 µM | 41.3 µM | > 100 µM | 21.2 µM | 57.7 µM |
| C=C(CN1CCc2ccccc2C1)c1ccc(C(=O)Nc2cccc(N)c2)cc1 | 20.5 µM | 61.2 µM | 27.3 µM | > 100 µM | 23 µM | 52.1 µM | 21.7 µM | 76.8 µM | 19.9 µM | 50 µM | 17.1 µM | 31.9 µM | 20 µM | 51.2 µM | 17.2 µM | 46.6 µM | 16.5 µM | 33.7 µM | 13.6 µM | 28.3 µM |
| O=c1c2cc(F)ccc2sc2c(NCCCNCCO)nc3ccc(F)cc3c12 | 1.92 µM | 4.4 µM | 1.94 µM | 4.48 µM | 1.73 µM | 3.48 µM | 1.67 µM | 3.22 µM | 1.63 µM | 3.24 µM | 1.64 µM | 3.18 µM | 1.77 µM | 3.23 µM | 1.63 µM | 3.32 µM | 1.84 µM | 3.58 µM | 1.7 µM | 3.15 µM |
| N/C(=N\O)c1cn(C2OC(CO)C(O)C2O)c2ncnc(N)c12 (stereo unspecified) | 0.126 µM | 20.1 µM | 0.108 µM |  | 0.0883 µM |  | 0.262 µM |  | 0.138 µM | 0.987 µM | 0.212 µM | 1.43 µM | 0.275 µM | 7.3 µM | 0.374 µM | > 100 µM | 0.188 µM |  | 0.183 µM | 0.356 µM |
| CCN(CC)c1ccc(C=C2C(=O)NC(=S)NC2=O)cc1 | 12.1 µM | 28 µM | 9.62 µM | 25.7 µM | 1.91 µM | 4.32 µM | 3.39 µM | 12.2 µM | 3.99 µM | 15.1 µM | 1.99 µM | 3.73 µM | 6.21 µM | 21.2 µM | 2.27 µM | 4.08 µM | 4.52 µM | 16.6 µM | 9.25 µM | 21.5 µM |
| CC1SC(c2ccc(OCc3ccccc3)cc2)N(NC(=O)C(O)(c2ccccc2)c2ccccc2)C1=O (stereo unspecified) | 4.68 µM | 20.8 µM | 3.52 µM | 14.9 µM | 3.61 µM | 12.7 µM | 3.72 µM | 17.8 µM | 3.53 µM | 12.9 µM | 1.92 µM | 4.99 µM | 1.78 µM | 4.53 µM | 1.98 µM | 4.64 µM | 2.29 µM | 6.32 µM | 8.26 µM | 20.7 µM |
| O=C(CNC(=O)c1cccc2ccccc12)Nc1ccccc1Oc1ccc(O)cc1 | 1.49 µM | > 25 µM | 1.54 µM | > 25 µM | 0.911 µM | > 25 µM | 1.19 µM | > 25 µM | 0.969 µM | > 25 µM | 8.98 µM | > 25 µM | 0.62 µM | > 25 µM | 1.04 µM | > 25 µM | 0.919 µM | > 25 µM | 0.846 µM | > 25 µM |
| CNC(=S)N/N=C/CSC/C=N/NC(=S)NC | > 100 µM | > 100 µM | 0.667 µM | > 100 µM | 41.1 µM | > 100 µM | > 100 µM | > 100 µM | > 100 µM | > 100 µM | > 100 µM | > 100 µM | > 100 µM | > 100 µM | > 100 µM | > 100 µM | > 100 µM | > 100 µM | > 100 µM | > 100 µM |
| CS(=O)c1cc(=O)c2ccccc2s1 (stereo unspecified) |  | 38.3 µM |  | 6.52 µM |  | 4.2 µM |  | 34.1 µM |  | 35 µM |  | 16.6 µM |  | 32.6 µM |  | 7.41 µM |  | 28.4 µM |  | 22.4 µM |
| O=C(/C=C/c1ccccc1)c1ccccn1 |  | 46.1 µM and > 100 µM |  | 31.2 µM and 62.7 µM |  | 58.9 µM and > 100 µM |  | 54.5 µM and > 100 µM |  | 32.7 µM and 49.1 µM |  | 26.7 µM and 35.8 µM |  | 33.9 µM and 59.9 µM |  | 24.7 µM and 40.9 µM |  | 34.2 µM and 28.5 µM |  | 28.5 µM and 88.6 µM |
| CN1CC[C@H](N(C)C(=O)N2CC(c3cc(F)ccc3F)=C[C@@]2(CO)c2ccccc2)[C@H](F)C1 | 0.0383 µM | > 100 µM | 0.0635 µM | > 100 µM | 0.00854 µM | > 100 µM | 0.0205 µM | 1.3 µM | 0.0308 µM | > 100 µM | 0.037 µM | 13.4 µM | 0.0148 µM | 18.2 µM | 0.0072 µM | > 100 µM | 0.0277 µM | > 100 µM | 0.00471 µM | 14.1 µM |
